The values that follow come from US4994476A, “Dihydropyridin-3,5-dicarboxylates incorporating aryloxypropanolamine moieties” (Bristol-Myers Company, priority 1985, dated 1991).

pIC50: −log10 of the molar value. Counter-ions that a name gives are not always drawn. Like-named read-outs stand apart in the source and are kept apart here. A value given as a limit tells only on which side of the number the result lay.

One data set concerns the target T1, rat dorsal aorta (Rattus norvegicus, UniProt P22002).
T1 construct: from tissue; host or cells: rat dorsal aorta (smooth muscle)
Put plainly: Calcium blockade in rat dorsal aorta (calcium activity in smooth muscle). The format is cell-based. To be noted: for Calcium (pA2): negative logarithm of molar concentration giving dose ratio of 2; for Kb: negative logarithm of molar concentration giving dose ratio of 2, read-out: Calcium (pA2) (converted). On the procedure:
(§1) Evaluation of these pharmacological properties was affected by means of both in vitro and in vivo biological screens. In vitro screening included calcium activity in various smooth muscle systems such as rat dorsal aorta, portal vein, and trachea; effects on blood platelets, β-binding affinities which were determined in rat heart and lung. […] The in vivo testing included vasodilating results in the ganglion-blocked, angiotensin-II supported rat and antihypertensive screening in the spontaneous hypertensive rat (SHR) or DOCA salt rats.

For a further data set, the target named is T2, β-Receptor (Rattus norvegicus, UniProt P18090).
T2 construct: from tissue; host or cells: rat heart
T2 sequence (P18090 whole entry): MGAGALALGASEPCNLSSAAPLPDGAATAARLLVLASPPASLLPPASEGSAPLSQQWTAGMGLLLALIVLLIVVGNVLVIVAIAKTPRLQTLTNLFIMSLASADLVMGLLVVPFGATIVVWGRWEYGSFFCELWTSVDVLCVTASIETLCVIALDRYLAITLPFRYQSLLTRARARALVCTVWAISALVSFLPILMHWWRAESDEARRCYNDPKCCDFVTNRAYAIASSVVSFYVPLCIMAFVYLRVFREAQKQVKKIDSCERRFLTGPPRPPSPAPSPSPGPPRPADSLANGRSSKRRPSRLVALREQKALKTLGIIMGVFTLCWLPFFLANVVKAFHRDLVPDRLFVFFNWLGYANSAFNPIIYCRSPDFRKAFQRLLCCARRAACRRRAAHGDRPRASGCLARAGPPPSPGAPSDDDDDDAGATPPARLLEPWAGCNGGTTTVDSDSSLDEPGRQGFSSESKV
Put plainly: β-Receptor binding in animal heart tissue. The protocol: as §1

Data set [1] has as its system mean arterial blood pressure, ganglion-blocked, angiotensin-II supported rat. Put plainly: Vasodilation in the angiotensin-supported ganglion-blocked rat. Format: in vivo. The protocol: as §1
[2] abbreviates: animal heart tissue, read-out: β Binding (IC50).
Where [3] appears, read: Rattus norvegicus, 0.5 h, 30 minutes after dosing, read-out: Vasodilation, % reduction in mean arterial blood pressure.

T1 sequence (P22002 whole entry): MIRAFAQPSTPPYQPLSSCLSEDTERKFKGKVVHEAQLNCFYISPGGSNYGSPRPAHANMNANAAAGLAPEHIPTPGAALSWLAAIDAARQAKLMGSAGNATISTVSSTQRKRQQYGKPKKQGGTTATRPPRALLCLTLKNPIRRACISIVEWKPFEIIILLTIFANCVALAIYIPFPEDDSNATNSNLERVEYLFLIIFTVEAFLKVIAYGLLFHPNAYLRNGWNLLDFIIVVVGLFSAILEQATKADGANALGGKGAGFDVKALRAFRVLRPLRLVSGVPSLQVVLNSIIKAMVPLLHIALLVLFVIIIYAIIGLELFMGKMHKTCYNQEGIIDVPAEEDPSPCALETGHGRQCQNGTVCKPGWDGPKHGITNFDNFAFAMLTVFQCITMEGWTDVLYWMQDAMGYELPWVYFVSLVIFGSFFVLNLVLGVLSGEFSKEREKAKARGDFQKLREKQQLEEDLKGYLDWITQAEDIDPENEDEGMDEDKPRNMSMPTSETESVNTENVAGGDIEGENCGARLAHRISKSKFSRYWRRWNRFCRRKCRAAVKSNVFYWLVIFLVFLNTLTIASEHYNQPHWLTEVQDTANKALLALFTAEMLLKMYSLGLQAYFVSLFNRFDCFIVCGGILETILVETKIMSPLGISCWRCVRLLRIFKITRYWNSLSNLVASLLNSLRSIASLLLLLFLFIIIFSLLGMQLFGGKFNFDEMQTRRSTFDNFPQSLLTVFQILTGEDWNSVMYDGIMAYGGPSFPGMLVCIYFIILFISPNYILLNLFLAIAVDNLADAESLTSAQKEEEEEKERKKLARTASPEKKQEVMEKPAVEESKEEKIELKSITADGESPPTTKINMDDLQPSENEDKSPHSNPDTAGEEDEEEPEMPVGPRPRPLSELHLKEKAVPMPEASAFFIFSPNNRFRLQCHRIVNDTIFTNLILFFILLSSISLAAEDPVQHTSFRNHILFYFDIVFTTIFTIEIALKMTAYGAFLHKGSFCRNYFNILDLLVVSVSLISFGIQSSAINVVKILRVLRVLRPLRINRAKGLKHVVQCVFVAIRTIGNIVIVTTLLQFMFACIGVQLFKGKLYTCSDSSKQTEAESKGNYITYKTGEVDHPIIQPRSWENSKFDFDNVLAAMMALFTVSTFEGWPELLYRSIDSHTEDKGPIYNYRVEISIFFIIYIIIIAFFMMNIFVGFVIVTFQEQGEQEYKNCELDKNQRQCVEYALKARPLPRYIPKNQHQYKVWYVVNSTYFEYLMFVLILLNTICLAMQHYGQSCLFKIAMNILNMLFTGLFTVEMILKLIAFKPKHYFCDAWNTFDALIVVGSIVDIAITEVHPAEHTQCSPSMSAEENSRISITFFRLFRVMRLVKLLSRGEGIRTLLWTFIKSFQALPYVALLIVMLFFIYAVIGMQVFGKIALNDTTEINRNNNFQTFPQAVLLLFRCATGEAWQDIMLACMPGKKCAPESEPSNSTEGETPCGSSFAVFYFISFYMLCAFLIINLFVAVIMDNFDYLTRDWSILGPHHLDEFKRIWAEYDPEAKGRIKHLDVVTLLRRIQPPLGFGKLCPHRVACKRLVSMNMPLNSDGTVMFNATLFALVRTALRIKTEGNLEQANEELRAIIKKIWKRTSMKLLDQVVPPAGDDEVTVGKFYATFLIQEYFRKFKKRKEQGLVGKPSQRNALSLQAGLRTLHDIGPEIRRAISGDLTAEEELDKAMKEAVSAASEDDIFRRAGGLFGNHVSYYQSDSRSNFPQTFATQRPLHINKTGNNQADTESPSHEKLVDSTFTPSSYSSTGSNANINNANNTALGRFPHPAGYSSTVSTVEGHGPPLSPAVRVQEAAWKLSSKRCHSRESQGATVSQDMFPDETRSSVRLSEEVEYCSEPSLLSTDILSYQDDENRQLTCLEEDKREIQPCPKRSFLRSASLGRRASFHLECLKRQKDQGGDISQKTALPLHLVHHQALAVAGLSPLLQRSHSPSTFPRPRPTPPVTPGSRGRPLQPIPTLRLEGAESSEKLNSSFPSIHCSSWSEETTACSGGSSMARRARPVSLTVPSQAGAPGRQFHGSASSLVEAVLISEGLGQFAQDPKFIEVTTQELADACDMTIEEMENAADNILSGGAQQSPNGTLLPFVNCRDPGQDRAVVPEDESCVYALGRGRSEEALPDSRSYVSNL
T1 sequence (P54290 25-944 partner limits assumed): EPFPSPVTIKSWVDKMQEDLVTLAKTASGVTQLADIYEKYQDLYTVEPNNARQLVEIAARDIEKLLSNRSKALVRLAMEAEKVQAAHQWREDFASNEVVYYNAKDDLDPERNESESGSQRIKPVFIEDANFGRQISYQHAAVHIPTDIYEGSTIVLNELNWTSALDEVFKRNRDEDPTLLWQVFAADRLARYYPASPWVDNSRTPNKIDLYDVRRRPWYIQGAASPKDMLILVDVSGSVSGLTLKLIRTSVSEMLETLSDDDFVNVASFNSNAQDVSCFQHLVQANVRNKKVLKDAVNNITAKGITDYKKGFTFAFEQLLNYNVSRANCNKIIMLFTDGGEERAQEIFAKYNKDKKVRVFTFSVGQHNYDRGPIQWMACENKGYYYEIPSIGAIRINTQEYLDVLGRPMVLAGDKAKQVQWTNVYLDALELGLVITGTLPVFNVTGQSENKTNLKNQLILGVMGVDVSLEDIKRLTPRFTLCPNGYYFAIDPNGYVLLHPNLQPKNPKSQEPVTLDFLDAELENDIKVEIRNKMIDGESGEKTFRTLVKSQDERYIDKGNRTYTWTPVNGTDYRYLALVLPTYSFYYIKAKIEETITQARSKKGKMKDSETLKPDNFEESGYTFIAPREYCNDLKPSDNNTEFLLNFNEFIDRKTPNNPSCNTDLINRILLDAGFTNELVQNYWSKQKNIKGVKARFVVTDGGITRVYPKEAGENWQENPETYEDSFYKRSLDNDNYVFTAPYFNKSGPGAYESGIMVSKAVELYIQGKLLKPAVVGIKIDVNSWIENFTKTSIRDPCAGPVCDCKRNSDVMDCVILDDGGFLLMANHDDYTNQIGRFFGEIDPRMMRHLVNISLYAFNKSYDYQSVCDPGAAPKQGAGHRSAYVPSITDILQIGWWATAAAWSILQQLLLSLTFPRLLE
T1 sequence (P54290 945-1091 partner limits assumed): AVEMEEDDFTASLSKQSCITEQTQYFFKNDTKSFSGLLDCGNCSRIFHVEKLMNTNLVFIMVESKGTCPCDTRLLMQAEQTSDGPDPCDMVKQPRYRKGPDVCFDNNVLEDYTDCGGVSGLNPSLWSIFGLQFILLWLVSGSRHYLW

For the molecule `COC(=O)C1=C(C)NC(C)=C(C(=O)OCCCNCC(O)COc2ccccc2C(F)(F)F)C1c1cccc([N+](=O)[O-])c1` (stereo not drawn) [Example 60], the “Calcium (pA2)” value at rat dorsal aorta came out at 7.2.

In the case of `CCOC(=O)C1=C(C)NC(C)=C(C(=O)OCCc2ccc(OCC(O)CNC(C)C)cc2)C1c1cccc([N+](=O)[O-])c1` (stereo not drawn) [Example 54, Ethyl [2-[4-[3-[2-Hydroxy.(1-methylethyl)-amino]propoxy]phenyl]ethyl]1,4-Dihydro-2,6-dimethyl-4-(3-nitrophenyl)-3,5-pyridine dicarboxylate Hydrochloride Hydrate], the Kb on rat dorsal aorta was 12.6 nM. The pIC50 – broadly, the IC50 on a negative log10 scale, so that one unit is a factor of ten – on β-Receptor (setting [2]) was 7.00. In addition, the inhibition in vivo at 1 mg/kg in data set [1] (setting [3]) worked out at 57%.

Take `COC(=O)C1=C(C)NC(C)=C(C(=O)OCCCNCC(O)COc2cccc3ccccc23)C1c1cccc([N+](=O)[O-])c1` (stereo not drawn) [Example 59]: at rat dorsal aorta, the “Calcium (pA2)” value worked out at 7.3.

As to `COC(=O)C1=C(C)NC(C)=C(C(=O)OCCCNCC(O)COc2ccc(F)cc2C)C1c1cccc([N+](=O)[O-])c1` (stereo not drawn) [Example 42], the Kb at rat dorsal aorta is 3.98 nM. Besides, the inhibition in vivo at 1 mg/kg in data set [1] (setting [3]) was found to be 39%.

Consider `CC(=O)Nc1ccc(OCC(O)CNC(C)C)cc1` (stereo not drawn) [Practolol, reference compound], for which the negative logarithm of the IC50 (pIC50) at β-Receptor (setting [2]) was 6.00.

Regarding `COC(=O)C1=C(C)NC(c2cccs2)=C(C(=O)OCC(C)(C)NCC(O)COc2ccccc2C#N)C1c1cccc([N+](=O)[O-])c1` (stereo not drawn) [Example 33], the pIC50 at β-Receptor (setting [2]) was 7.15. The inhibition in vivo at 1 mg/kg in data set [1] (setting [3]) is 12%.

Regarding `CCC1=C(C(=O)OCC(C)(C)NCC(O)COc2ccccc2Br)C(c2cccc([N+](=O)[O-])c2)C(C(=O)OC)=C(C)N1` (stereo not drawn) [Example 38], the pIC50 at β-Receptor (setting [2]) was 6.74. The inhibition in vivo at 1 mg/kg in data set [1] (setting [3]) turned out to be 55%.

For `CCC1=C(C(=O)OCCCNCC(O)COc2ccccc2C#N)C(c2cccc([N+](=O)[O-])c2)C(C(=O)OC)=C(C)N1` (stereo not drawn) [Example 35], at β-Receptor (setting [2]), the pIC50 is 6.70. Besides, the inhibition in vivo at 1 mg/kg in data set [1] (setting [3]) was determined as 28%.

As for `COC(=O)C1=C(C)NC(C)=C(C(=O)OCCCNCC(O)COc2ccccc2C)C1c1cccc([N+](=O)[O-])c1` (stereo not drawn) [Example 44, Methyl [3-[[3-(2-Methylphenoxy)-2-hydroxypropyl]-amino]propyl]1,4-Dihydro-2,6-dimethyl-4-(3-nitrophenyl)-3,5-pyridinedicarboxylate Hydrochloride], the Kb on rat dorsal aorta is 10 to 15.8 nM. In addition, the pIC50 on β-Receptor (setting [2]) is 8.00. Also, in data set [1] (setting [3]), the inhibition in vivo at 1 mg/kg came to 28%.

Consider `CCC1=C(C(=O)OCC(C)(C)NC(=O)Cc2ccc(OCC(O)CNC(C)C)cc2)C(c2cccc([N+](=O)[O-])c2)C(C(=O)OC)=C(C)N1` (stereo not drawn) [Example 57, [2-[4-[2-Hydroxy-3-[(1-methylethyl)amino]propoxy]-phenyl]methyl]carbonyI]amino]-2,2-dimethylethyl]^3 Methyl^5 2-Ethyl-1,4-dihydro-6-methyl-4-(3-nitrophenyl)-3,5-pyridinedicarboxylate Hemihydrate], for which, on rat dorsal aorta, the Kb was 50.1 nM. Also, at β-Receptor (setting [2]), the negative-log IC50 (pIC50) is under 6.00. Moreover, in data set [1] (setting [3]), the inhibition in vivo at 1 mg/kg is 11%.

Consider `COC(=O)C1=C(C)NC(C(C)C)=C(C(=O)OCC(C)(C)NCC(O)COc2ccccc2C#N)C1c1cccc([N+](=O)[O-])c1` (stereo not drawn) [Example 31], for which the pIC50 at β-Receptor (setting [2]) is 6.10. The inhibition in vivo at 1 mg/kg in data set [1] (setting [3]) was found to be 9%.

On to `CCC1=C(C(=O)OCC(C)(C)NCC(O)COc2ccccc2C#N)C(c2cccc([N+](=O)[O-])c2)C(C(=O)OC)=C(C)N1` (stereo not drawn) [Example 30], for which the Kb on rat dorsal aorta was 3.98 nM. Besides, the negative-log IC50 (pIC50) at β-Receptor (setting [2]) is 6.70. Besides, the inhibition in vivo at 1 mg/kg in data set [1] (setting [3]) was 50%.

On to `COC(=O)C1=C(C)NC(C)=C(C(=O)OCCCNCC(O)COc2cccc3c2C[C@H](O)[C@H](O)C3)C1c1cccc([N+](=O)[O-])c1` (relative stereo) [Example 64], for which, on rat dorsal aorta, the “Calcium (pA2)” value worked out at 7.3.

With `CCC1=C(C(=O)OCC(C)(C)NCC(O)COc2ccccc2C)C(c2cccc([N+](=O)[O-])c2)C(C(=O)OC)=C(C)N1` (stereo not drawn) [Example 37], the inhibition in vivo at 1 mg/kg in data set [1] (setting [3]) amounted to 58%.

`C=CCc1ccccc1OCC(O)CNCCCOC(=O)C1=C(C)NC(C)=C(C(=O)OC)C1c1cccc([N+](=O)[O-])c1` (stereo not drawn) [Example 62]: the “Calcium (pA2)” value on rat dorsal aorta is reported as 7.4.

Take `COC(=O)C1=C(C)NC(C)=C(C(=O)OCC(C)(C)NCC(O)COc2ccccc2C#N)C1c1cccc([N+](=O)[O-])c1` (stereo not drawn) [Example 29]: at rat dorsal aorta, the Kb is 6.31 nM. Moreover, the pIC50 at β-Receptor (setting [2]) is 7.70. Besides, the inhibition in vivo at 1 mg/kg in data set [1] (setting [3]) stood at 52%.

Turning to `COC(=O)C1=C(C)NC(C)=C(C(=O)OCCCNCC(O)COc2cccc3c2CCCC3=O)C1c1cccc([N+](=O)[O-])c1` (stereo not drawn) [Example 63], the “Calcium (pA2)” value at rat dorsal aorta was determined as 8.8.

Regarding `CCOC(=O)C1=C(C)NC(C)=C(C(=O)OCCCC(=O)Nc2ccc(OCC(O)CNC(C)C)cc2)C1c1cccc([N+](=O)[O-])c1` (stereo not drawn) [Example 56, Ethyl [3-[[[4-[2-Hydroxy-3-[(1-methylethyl)amino]-propoxy]phenyl]amino]carbonyl]propyl]1,4-Dihydro-2,6-dimethyl-4-(3-nitrophenyl)-3,5-pyridinedicarboxylateHydrate], at rat dorsal aorta, the Kb is 10 nM. Besides, on β-Receptor (setting [2]), the pIC50 was 6.21.

`CCOC(=O)C1=C(C)NC(C)=C(C(=O)OCCCNCC(O)COc2ccccc2C)C1c1cccc([N+](=O)[O-])c1` (stereo not drawn) [Example 40]: the Kb on rat dorsal aorta is 20 nM. Besides, in data set [1] (setting [3]), the inhibition in vivo at 1 mg/kg amounted to 36%.

As to `COC(=O)C1=C(C)NC(C)=C(C(=O)OCCCNCC(O)COc2cccc(C)c2)C1c1cccc([N+](=O)[O-])c1` (stereo not drawn) [Example 41], the Kb on rat dorsal aorta is 6.31 nM. In addition, the inhibition in vivo at 1 mg/kg in data set [1] (setting [3]) stood at 28%.

Turning to `COC(=O)C1=C(C)NC(c2ccccc2)=C(C(=O)OCC(C)(C)NCC(O)COc2ccccc2C#N)C1c1cccc([N+](=O)[O-])c1` (stereo not drawn) [Example 32], on β-Receptor (setting [2]), the pIC50 was 6.52. In addition, the inhibition in vivo at 10 mg/kg in data set [1] (Rattus norvegicus, 0.5 h, 30 minutes after dosing, at 10 mg/kg, read-out: Vasodilation, % reduction in mean arterial blood pressure) stood at 22%.

As for `COC(=O)C1=C(C)NC(C)=C(C(=O)OCCCNCC(O)COc2ccccc2C2CCCCC2)C1c1cccc([N+](=O)[O-])c1` (stereo not drawn) [Example 61], the “Calcium (pA2)” value at rat dorsal aorta was 7.6.

For the molecule `CCC1=C(C(=O)OCC(C)(C)NCC(O)COc2ccc(CC(N)=O)cc2)C(c2cccc([N+](=O)[O-])c2)C(C(=O)OC)=C(C)N1` (stereo not drawn) [Example 45, [2-[3-[4-(Aminocarbonyl)methyl]phenoxy]-2-hydroxypropyl]amino]-2,2-dimethylethyl]^3 Methyl^5 2-Ethyl-1,4-dihydro-6-methyl-4-(3-nitrophenyl)-3,5-pyridinedicarboxylate Hemihydrate], the Kb on rat dorsal aorta was 6.31 nM. The pIC50 at β-Receptor (setting [2]) is 6.38. In addition, the inhibition in vivo at 1 mg/kg in data set [1] (setting [3]) worked out at 33%.

For `COC(=O)C1=C(C)NC(C)=C(C(=O)OCCNC(=S)NCCNCC(O)COc2ccccc2C)C1c1cccc([N+](=O)[O-])c1` (stereo not drawn) [Example 46], the Kb on rat dorsal aorta was 251 nM. Moreover, the inhibition in vivo at 1 mg/kg in data set [1] (setting [3]) is 22%.

As for `CCC1=C(C(=O)OCCNCC(O)COc2ccccc2C#N)C(c2cccc([N+](=O)[O-])c2)C(C(=O)OC)=C(C)N1` (stereo not drawn) [Example 34], on rat dorsal aorta, the Kb was 12.6 nM. On β-Receptor (setting [2]), the pIC50 is 5.22. Further, the inhibition in vivo at 1 mg/kg in data set [1] (setting [3]) came to 17%.

Molecule `COC(=O)C1=C(C)NC(C)=C(C(=O)OC)C1c1ccccc1[N+](=O)[O-]` [Nifedipine, reference compound] showed a pIC50 on β-Receptor of under 6.00. In data set [1] (Rattus norvegicus, 0.5 h, 30 minutes after dosing, at 0.1 mg/kg, read-out: Vasodilation, % reduction in mean arterial blood pressure), the inhibition in vivo at 0.1 mg/kg came out at 23%.

As to `CCC1=C(C(=O)OCC(C)(C)NCC(O)COc2ccc(CCOC)cc2)C(c2cccc([N+](=O)[O-])c2)C(C(=O)OC)=C(C)N1` (stereo not drawn) [Example 39], on rat dorsal aorta, the Kb was 1.58 nM. Further, the negative logarithm of the IC50 (pIC50) at β-Receptor (setting [2]) was 6.40. Also, the inhibition in vivo at 1 mg/kg in data set [1] (setting [3]) was 54%.

Regarding `CCOC(=O)C1=C(C)NC(C)=C(C(=O)OCCCNCC(O)COc2ccccc2C#N)C1c1cccc([N+](=O)[O-])c1` (stereo not drawn) [Example 43], the Kb on rat dorsal aorta is 6.31 nM.

For `CCOC(=O)C1=C(C)NC(C)=C(C(=O)OCCc2ccc(OCC(O)CNC(C)(C)C)cc2)C1c1cccc([N+](=O)[O-])c1` (stereo not drawn) [Example 55, Ethyl [2-[4-[3-[(1,1-dimethylethyl)amino]-2-hydroxypropoxy]phenyl]ethyl]1,4-Dihydro-2,6-dimethyl-4-(3-nitrophenyl)-3,5-pyridinedicarboxylate Hydrochloride Hemihydrate], the Kb on rat dorsal aorta was 12.6 nM. The “Lethality in vasodilation test” value in data set [1] (1.0 mg/kg) is given as “Lethal at 1.0 mg/kg”.
